We go through three molecules from patent publication US5863776A, “Method of preparing apoenzyme” (Research Development Foundation, priority 1996, dated 1999).

Assay [1] deals with T1, MAO B (Homo sapiens, UniProt P27338).
T1 construct: expressed in transfected cells; host or cells: COS-7 (African green monkey), riboflavin-containing (Rib+) or riboflavin-depleted (Rib-), transient electroporation
T1 sequence (P27338 1-520): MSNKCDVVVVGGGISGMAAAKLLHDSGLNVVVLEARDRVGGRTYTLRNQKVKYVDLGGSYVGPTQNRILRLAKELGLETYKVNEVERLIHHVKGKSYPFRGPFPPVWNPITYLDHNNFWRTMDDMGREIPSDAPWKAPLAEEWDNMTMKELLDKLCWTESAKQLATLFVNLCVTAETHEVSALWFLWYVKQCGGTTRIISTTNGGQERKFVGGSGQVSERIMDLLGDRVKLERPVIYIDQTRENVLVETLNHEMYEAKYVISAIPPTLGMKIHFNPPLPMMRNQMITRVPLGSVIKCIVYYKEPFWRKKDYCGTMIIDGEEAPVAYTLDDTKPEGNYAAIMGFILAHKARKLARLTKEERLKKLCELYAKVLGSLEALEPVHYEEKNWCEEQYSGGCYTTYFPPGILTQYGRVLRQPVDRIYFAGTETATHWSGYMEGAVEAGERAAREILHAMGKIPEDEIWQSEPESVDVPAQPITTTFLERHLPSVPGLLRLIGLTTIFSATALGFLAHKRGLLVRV
Description: FAD coupling in intact cells: MAO B enzymatic activity after electroporation of MAO B cDNA with cofactor into Rib^- COS-7 cells ([^14 C] benzylamine substrate). Format: cell-based. Details: Percent of Holo-MAO B Activity: concentration or dose not given beside the values. The protocol: (§1) Wild-type or mutant MAO B cDNAs were transiently transfected into COS-7 cells by electroporation (23) as previously described (18). Briefly, Rib^+ - or Rib^- COS-7 cells were harvested during late log phase growth and resuspended to a concentration of 3.1×10^6 cells/ml in either riboflavin-containing or riboflavin-free medium, respectively. Wild-type or mutant MAO B cDNAs ([…]) were added to 0.8 ml of cell suspension. […] Electroporation was carried out in a Bio-Rad Gene Pulser with a setting of 250 V and 500 μF. Cells were resuspended in 15 ml of riboflavin-containing or riboflavin-free medium and incubated at 37° C. with 5% CO2. Transfected COS-7 cells were harvested at 48 hours and homogenized in a lysis solution containing 20 mM Tris-HCl, 1 mM EDTA, 0.5 mM PMSF, pH 8.0. The homogenate was diluted with an equal volume of the same buffer supplemented with 300 mM NaCl to obtain a 150 mM final NaCl concentration. Triton X-100 (Pierce) was added to the lysate to give a final concentration of 0.25%, and the samples were allowed to stir for 50 min. at 4° C. to extract MAO B from the outer mitochondrial membrane. After Triton extraction, the lysate was centrifuged at 1300×g for 5 min. at 4° C. to remove insoluble cell debris.
(§2) MAO B activity was assayed radiometrically by a modification of the method of Wurtman and Axelrod (26) as described previously (18). Briefly, the reaction mixture contained 200 μl of 50 mM sodium phosphate buffer (pH 7.4), 3.6 nmole of 55 mCi/mmol [^14 C] benzylamine hydrochloride (Amersham), 10 nmoles of unlabeled benzylamine and 10 μl of cell lysate. Samples were run in triplicate, and one out of each set was denatured with […] of 6N HCl prior to the addition of substrate to serve as an internal control. All reactions were incubated for 9 minutes at 37° C., and terminated by the addition of 25 μl of 6N HCl. The reaction product was extracted with 500 μl of toluene, and an aliquot (200 μl) of the organic phase from each sample was counted in liquid scintillation fluid (Bio-Safe) in a Beckman LB 3801 scintillation counter.
FMN or riboflavin were also capable of restoring approximately 75% of MAO B holoenzyme activity. However, only 40% of MAO B holoenzyme activity was obtained by the addition of 8α-hydroxyriboflavin.
Various cofactors were added with MAO B cDNA into Rib^- COS7 cells

In assay [2] the target is T1, MAO B. Briefly: Quantitation of expressed MAO B protein by ELISA in transfected COS-7 cells. As to conditions: cofactor added with MAO B cDNA into Rib^- COS-7 cells; 48 hours; mean ± SE, three experiments. Further details: MAO B Expressed: unit not given here. Type of assay: cell-based. The protocol:
Total protein concentrations of samples containing MAO B holoenzyme, apoenzyme, or variant MAO Bs were determined by a MicroBCA kit (Pierce). All samples were then adjusted to equal protein concentrations and assayed for MAO B protein by ELISA using a modification of the method of Yeomanson and Billett (25) as described previously (18).
MAO B cDNA was expressed sequentially at different time intervals in these cells during this riboflavin depletion process (FIG. 2). Each data point in FIG. 2 represents an individual expression assay. For each assay, a sample of COS-7 cells grown in riboflavin-free medium were transfected with MAO B cDNA via electroporation. Concurrently, Rib^+ COS-7 cells were transfected with MAO B cDNA to serve as a control. Following incubation for 48 hours, the cells were homogenized and assays were performed to determine protein concentration, MAO B concentration by ELISA using polyclonal antibodies, and MAO B activity using [^14 C] benzylamine.
An equal amount of MAO B cDNA (15 μg) was expressed in both types of […]
In general terms: An ELISA detects its analyte on a solid surface through an enzyme-linked reagent.

The target in assay [3] is T1, MAO B. Briefly: FAD coupling in vitro (flavinylation assay in cell lysate, 30° C.). Type of assay: biochemical. The settings on record: 30° C. The protocol:
(- - - x - - - ). […] The enzymatic activity of each sample was determined at 1 hour time intervals using [^14 C] benzylamine as substrate.
Apo-MAO B was obtained by expressing MAO B cDNA in Rib^- COS-7 cells. The cells were then harvested and homogenized as described above. One half of the lysate was stirred in the presence of 0.25% Triton X-100 at 4° C. for 50 min. to extract apo-MAO B from the outer mitochondrial membrane. The second half of the lysate was not extracted with Triton X-100 to permit MAO B to remain in the membrane. […] Assays were also carried out in the presence of an energy mixture (10 mM ATP, 32 mM PEP and 2.4 μg pyruvate kinase) and 25% glycerol in the reaction vials. Each sample was run in triplicate. After 1, 2 or 3 hours incubation at 30° C., each sample was assayed for MAO B activity as described below.
as §2

The subject of assay [4] is L-gulono-g-lactone oxidase. The settings on record: cited from earlier work.
Assay [5] relates to MAO B. Briefly: [^14 C] FAD incorporation into wild-type or mutant MAO B in Rib^- COS-7 cells (immunoprecipitation, fluorography). Type of assay: binding, human. The settings on record: about 59 kDa; equal MAO B concentrations. The protocol: Mutagenesis was carried out by the method of Deng and Nickoloff (22) using a Transformer Site-directed Mutagenesis kit (Clontech). Glu in position 34 was replaced with Asp (E34D), Gln (E34Q), or Ala (E34A), and Val in position 10 was replaced with Ile (V10I) as described by Kwan et al. (18).
as §1
Transfected Rib^+ - or Rib^- COS-7 cells were homogenized, and extracted with 0.25% Triton X-100 for 50 minutes at 4° C. The cell lysates were centrifuged at 1300×g for 5 minutes, and an aliqout of each supernatant was analyzed for MAO B concentration by ELISA. All supernatants were then adjusted to equal MAO B concentration and incubated with polyclonal goat anti-MAO B antibody (10 μg) overnight at 4° C. Protein-G Sepharose beads (Pierce) were added (50 μl) and incubation was continued for 3 hours. The protein-G Sepharose/goat antibody/MAO B immmunocomplex was collected by centrifugation at 10,000×g for 20 seconds and washed 6 times with 150 μl of 20 mM Tris buffer, pH 8.0. The immunocomplex was then dissolved in SDS-PAGE sample buffer and analyzed by Western blot or fluorography.
The immunoprecipitated proteins (obtained as described above) were subjected to electrophoresis in a 10% SDS-polyacrylamide gel and examined by Western blotting as previously described (18). The immunoprecipitated proteins (obtained as described above) were subjected to electrophoresis in a 10% SDS-polyacrylamide gel. The SDS-PAGE gel was fixed by soaking in 7% acetic acid, 10% methanol, 83% H2 O for 1 hour, and then processed for fluorography as described by Bonner and Laskey (27). The dried gel was exposed to Kodak X-OMAT AR film at -80° C. for 2 weeks.
The expressed wild-type and variant MAO Bs were adjusted to equal concentrations using ELISA before immunoprecipitation, and then analyzed by fluorography. The amount of incorporation of [^14 C] […] FAD was incorporated into the enzyme.

Assay [6] relates to MAO B. The settings on record: mutation at Glu^34; cited from earlier work.

Where a chain is given by its changes, count along the chain named. Names may count otherwise. “Also recorded” adds a separate entry of the source.

On to `Cc1cc2nc3c(=O)[nH]c(=O)nc-3n(C[C@H](O)[C@H](O)[C@H](O)COP(=O)(O)OP(=O)(O)OC[C@H]3O[C@@H](n4cnc5c(N)ncnc54)[C@H](O)[C@@H]3O)c2cc1C` [FAD], for which the “restoration of active MAO B (in words)” value in assay [1] (cofactor added with MAO B cDNA during electroporation) is listed as “equal levels of MAO B activity; also recorded: active MAO B (containing FAD) was obtained”. For the same molecule, the “Enzymatic Activity” value in assay [1] (cofactor added with MAO B cDNA into Rib^- COS-7 cells, 48 hours, mean ± SE, three experiments) is on record as 0.85 ± 0.01 μmol benzylamine/minute/mg MAO. The “Percent of Holo-MAO B Activity” value in assay [1] (relative to holo-MAO B expressed in Rib^+ COS-7 cells, 2880 min) is on record as roughly 75%. In addition, in assay [2], the “MAO B Expressed” value is 0.86 ± 0.03. Further, in assay [3] (Triton extracted or non-extracted lysate), the “MAO B catalytic activity after adding exogenous FAD to apo-MAO B” value is “no MAO B catalytic activity was observed; also recorded: MAO B activity could not be regenerated”. The “MAO B activity after adding exogenous FAD to apo-MAO B” value in assay [3] (with energy mixture and glycerol) is given as “no MAO B activity was obtained; also recorded: unsuccessful”. Further, in assay [4], the “covalently bound FAD” value is “no covalently bound FAD could be obtained” and the “enzymatic activity upon addition of FAD” value is recorded as “Enzymatic activity was observed”.

B1: E34A: MAO B with Glu in position 34 replaced with Ala (protein, UniProt P27338 2-520, looked up, variant E34A)
Amine oxidase …: SNKCDVVVVGGGISGMAAAKLLHDSGLNVVVLAARDRVGGRTYTLRNQKVKYVDLGGSYVGPTQNRILRLAKELGLETYKVNEVERLIHHVKGKSYPFRGPFPPVWNPITYLDHNNFWRTMDDMGREIPSDAPWKAPLAEEWDNMTMKELLDKLCWTESAKQLATLFVNLCVTAETHEVSALWFLWYVKQCGGTTRIISTTNGGQERKFVGGSGQVSERIMDLLGDRVKLERPVIYIDQTRENVLVETLNHEMYEAKYVISAIPPTLGMKIHFNPPLPMMRNQMITRVPLGSVIKCIVYYKEPFWRKKDYCGTMIIDGEEAPVAYTLDDTKPEGNYAAIMGFILAHKARKLARLTKEERLKKLCELYAKVLGSLEALEPVHYEEKNWCEEQYSGGCYTTYFPPGILTQYGRVLRQPVDRIYFAGTETATHWSGYMEGAVEAGERAAREILHAMGKIPEDEIWQSEPESVDVPAQPITTTFLERHLPSVPGLLRLIGLTTIFSATALGFLAHKRGLLVRV
Regarding B1, in assay [5], the “[^14 C] FAD incorporation (band on fluorogram)” value was “did not exhibit bands”. Also, the “loss of activity (in words)” value in assay [6] is recorded as “complete loss of activity; also recorded: devoid of enzymatic activity”.

B2: E34Q: MAO B with Glu in position 34 replaced with Gln (protein, UniProt P27338 2-520, looked up, variant E34Q)
Amine oxidase …: B1 Amine oxidase … with A33Q
Turning to B2, the “[^14 C] FAD incorporation (band on fluorogram)” value in assay [5] was “did not exhibit bands”. In addition, the “loss of activity (in words)” value in assay [6] is “complete loss of activity; also recorded: devoid of enzymatic activity”.
